Results as given in patent publication US20120213826A1, “Use of Pro-Inflammatory Compounds for Promoting Bone Formation” (Imperial Innovations Limited, priority 2009, published 2012).

Tested on: muscle-derived stromal cells (MDSC)
Assay: ALP quantification assay, osteogenic differentiation of cultured MDSC
Type: cell-based, human
Description: The immunoglobulin isotype controls used included IgG^1 for AbBMP-2/4 and AbTGF-β, and IgG^2B for Ab-BMP-7. B: human serum containing culture medium with the addition of recombinant human BMPs and TGF-β. C: fracture supernatant±antibody neutralization of TNF-α, IL-6 and IL-1β. The IgG^1 immunoglobulin was used as the antibody isotype control. D: human serum-containing culture medium with the addition of recombinant human TNF-α, IL-6 and IL-1β. E: Alizarin red staining for bone nodule formation after culture of 1×10^4 MDSC in human serum-containing media. […] A representative image from a single well is shown. All experiments were performed 3 times, in triplicate (n=3) using MDSC from 3 donors. Values for A-D represent a mean from 3 experiments ±SEM, using supernatant from 3 donors in A and C. *: P<0.05; **: P<0.01; ***: P<0.001; 1-way ANOVA with Bonferroni's multiple comparison test in A and C and with Dunnett's multiple comparison test against the media only control in B and D.
To investigate the fracture-derived stimulus for osteogenic differentiation of MDSC, fracture supernatants were prepared using human tibial fracture fragments obtained within 24 hours of injury (ethics approval number—COREC No: 07/Q0411/30). […] Bone fragments were obtained from either fractured tibial fragments or non-traumatically cut bone slices. These were then incubated in serum free DMEM+Glutamax media for 24 hours. The supernatant was then filter sterilised to remove any contaminants and cellular debris. MDSC were then cultured in the presence of either control media, osteogenic media, fracture supernatant or non-fracture supernatant for 7 days before lysis and quantification of ALP levels.
1×10^4 human MDSC were added to wells of a 96 well plate in triplicate. At 24 hrs the media was pipetted off and replaced by 200 μl test media. The media was changed every 3 days. At 7 days the media was removed and the cells lysed in 20 μl NP-40 lysis buffer. An ALP quantification assay (WAKO pure chemical Ltd.) was used. Calibration solution from the assay was serially diluted to make concentrations of 0.25, 0.125 and 0.0625 mmol/L. To empty wells, 20 μl of each calibration solution was added. To another, dH2O was added. 100 μl reagent (1 taBIet per 5 ml buffer solution) was added to each well, and incubated at 37° C. for 20 minutes. 80 μl stop solution was then added to each well and the plate was read using an ELISA spectrometer at 405 nm wavelength. The concentration of ALP in the test wells was extrapolated from the standard curve.

For TNFα, the “ALP expression (osteogenic differentiation) in cultured MDSC” value (Example 1, exogenous recombinant human factor added to MDSC culture (FIG. 8, 10, 12)) was “dose-dependent stimulation of ALP expression”, the “ALP expression by MDSC” value (Example 3, 7 days in human serum-containing media with recombinant human factor (FIG. 26B, 26D)) was “stimulated ALP expression” and the “concentration at which ALP expression by MDSC is stimulated” value (Example 3, 7 days, human serum-containing media (FIG. 26D)) was “up to 1 ng/ml”. For the same substance, the “ALP expression by MDSC relative to control” value (Example 3, TNF-α at 100 ng/ml, 7 days (FIG. 26D)) was “non-significantly less than the control”.
